Experimental data taken from US9326986B2, “Quinazolinone, quinolone and related analogs as sirtuin modulators” (GLAXOSMITHKLINE LLC, priority 2008, dated 2016).

Molecular target: T1, SIRT1 (Homo sapiens, UniProt Q96EB6)
T1 sequence (Q96EB6 1-747): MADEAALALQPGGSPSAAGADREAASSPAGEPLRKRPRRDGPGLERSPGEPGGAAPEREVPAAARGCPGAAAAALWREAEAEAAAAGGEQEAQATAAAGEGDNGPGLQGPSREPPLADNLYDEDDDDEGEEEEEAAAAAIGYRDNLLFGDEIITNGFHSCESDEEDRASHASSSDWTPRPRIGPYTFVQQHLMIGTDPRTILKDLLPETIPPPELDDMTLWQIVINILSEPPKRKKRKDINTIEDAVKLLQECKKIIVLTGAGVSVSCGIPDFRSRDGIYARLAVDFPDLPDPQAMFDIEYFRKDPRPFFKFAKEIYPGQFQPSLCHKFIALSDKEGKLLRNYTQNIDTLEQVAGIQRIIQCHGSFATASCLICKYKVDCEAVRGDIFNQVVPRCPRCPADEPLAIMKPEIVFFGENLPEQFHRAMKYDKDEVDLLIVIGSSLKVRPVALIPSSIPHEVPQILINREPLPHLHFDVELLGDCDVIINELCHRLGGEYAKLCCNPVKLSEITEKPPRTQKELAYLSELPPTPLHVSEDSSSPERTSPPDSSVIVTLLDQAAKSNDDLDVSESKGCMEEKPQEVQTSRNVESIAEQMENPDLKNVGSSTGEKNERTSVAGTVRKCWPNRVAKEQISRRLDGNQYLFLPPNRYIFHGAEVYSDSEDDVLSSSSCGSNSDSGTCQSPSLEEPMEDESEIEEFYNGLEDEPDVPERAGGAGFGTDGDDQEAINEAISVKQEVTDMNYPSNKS
Assay: Mass spectrometry based assay to identify modulators of SIRT1 activity (deacetylation of p53-based acetylated peptide)
Type: biochemical
Details: 10 nM SIRT1, 0.5 μM peptide substrate, 120 μM βNAD+, 25 minutes at 25° C.; for EC1.5 μM: SIRT1 activation

Row | SMILES | % Fold Act. (percent maximum fold activation) | EC1.5 μM
1 | O=C(Nc1cccc2c(=O)cc(-c3cccc(C(F)(F)F)c3)[nH]c12)c1cccc(CN2CCOCC2)n1 [Compound 448] | A (Fold activation>200%) | A (EC1.5<1.0 μM)
2 | O=C(Nc1nccs1)c1cncc2c(=O)cc(-c3cccc(C(F)(F)F)c3)[nH]c12 [Compound 449, 4-oxo-N-(thiazol-2-yl)-2-(3-(trifluoromethyl)phenyl)-1,4-dihydro-1,6-naphthyridine-8-carboxamide] | A (Fold activation>200%) | A (EC1.5<1.0 μM)
